Test results taken from patent publication US7598419B2, “Compounds for modulating cell proliferation” (HSC Research and Development Limited Partnership, priority 2004, dated 2009).

Key:
[1] = system: Z119 acute lymphoblastic leukemia cells; test: In vitro purging of Z119 acute lymphoblastic leukemia; format: cell-based, human; details: FIG. 15
Procedure: For the purging assay, the cells were resuspended in complete medium with or without CR4 as indicated and incubated at 37° C., 5% CO2 for 0-5 hours. Cells were then washed thoroughly with medium to remove the CR4, resuspended and plated in 1 ml volumes, in the absence of exogenous growth factors, into 35 mm petri dishes (Nunc, Gibco) containing alpha MEM (Gibco) plus 20% FCS (Cansera Rexdale, ON.) in 0.9% (vol/vol) methylcellulose (Fluka, Switzerland). Cultures were set at 37° C., 5% CO2 in a humidified atmosphere. Colonies consisting of more than 20 cells were counted at 9 days or earlier using an inverted microscope.

[2] = system: OCI-AML-3 acute myeloid leukemia cells; test: Colony assay of OCI-AML-3 cells in culture; format: cell-based; details: colonies at 5-6 days; FIG. 4
Procedure: (§1) OCI-AML-3 cells were plated in 35 mm petri dishes (Nunc, Gibco) in 1 ml volumes at a density of 3.3×10^3 cells/ml, in the absence of exogenous growth factors, containing alpha MEM plus 20% FCS (Cansera, Rexdale Ont.), and 0.9% (vol/vol) methylcellulose (Fluka, Switzerland) and the indicated concentrations of CR4. Cell cultures were incubated in a humidified atmosphere at 37° C. with 5% CO2. Colonies containing more than 20 cells were scored, using an inverted microscope, at 5-6 days.

[3] = system: cells of the myeloid lineage; details: in vitro, ex vivo and in vivo; cited from earlier work
[4] = system: a variety of cancer cells; test: Growth of cancer cells in culture (summary over cell types); format: cell-based
[5] = system: Philadelphia positive Z119 acute lymphoblastic leukemia cells; test: Colony assay of Z119 cells in culture; format: cell-based, human; details: low nanomolar doses; colonies at 7 days; FIG. 3
Procedure: Z119 cells were plated in 1 ml volumes at a density of 1×10^4 cells/ml, in the absence of exogenous growth factors, into 35 mm petri dishes (Nunc, Gibco) containing IMDM (OCI, Toronto) plus 20% FCS (Cansera Rexdale, ON.) in 0.9% (vol/vol) methylcellulose (Fluka, Switzerland) with the indicated concentration of CR4. Cultures were set at 37° C., 5% CO2 in a humidified atmosphere. Colonies consisting of more than 20 cells were counted at 7 days or earlier using an inverted microscope.

[6] = system: primary juvenile myelo-monocytic leukemia cells; test: Colony assay of primary JMML CD34+ cells in culture; format: cell-based; details: Homo sapiens, 288 h, colonies at 12 days, FIG. 6
Procedure: Heparinized bone marrow cells from a JMML patient were layered over Percoll (1.077 gm/ml) (Pharmacia Fine Chemical, Piscataway N.J.) and centrifuged at 400 g at 4° C. for 10 minutes to remove neutrophils and RBCs. Cells were further fractionated and purified on Miltenyi MS columns (Miltenyi Biotec GmbH, Germany) to acquire an early progenitor population of CD34^+ cells. The fractionated BM CD34^+ cells at a density of 1×10^4 cells/ml were cultured in IMDM (OCI, Toronto) containing 0.9% (vol/vol) methylcellulose supplemented with 30% FCS (Cansera Rexdale, ON.) with the indicated concentration of CR4. The culture mixture was plated in 1 ml volumes into 35 mm petri dishes and incubated at 37° C., 5% CO2 in a humidified atmosphere. Colonies consisting of more than 20 cells were counted at 12 days or earlier using an inverted microscope.

[7] = Retention in blood after I.V. injection; format: in vivo; details: 30 minutes after I.V. injection
[8] = system: HuNS1 multiple myeloma cells; test: Colony assay of HuNS1 cells in culture; format: cell-based; details: colonies at 5-6 days, FIG. 19, read-out: inhibition of HuNS1 cell proliferation and survival
Procedure: as §1, with “HuNS1” for “OCI-AML-3”, “1×10^4” for “3.3×10^3”

Ly-MN lymphoma cells = test: Colony assay of Ly-MN cells in culture; format: cell-based; details: colonies at 5 days, FIG. 5
Procedure: Ly-MN cells were plated in 1 ml volumes, in the absence of exogenous growth factors, into 35 mm petri dishes (Nunc, Gibco) containing IMDM (OCI, Toronto) plus 20% human cord blood plasma in 0.9% (vol/vol) methylcellulose (Fluka, Switzerland) and the indicated concentrations of CR4. Cultures were set at 37° C., 5% CO2 in a humidified atmosphere. Colonies consisting of more than 20 cells were counted at 5 days or earlier using an inverted microscope.

With N#C/C(=C\C=C\c1ccc(O)c(O)c1)C(=O)NCc1ccccc1 [CR4, (E,E)-2-(Benzylaminocarbonyl)-3-(3,4-dihydroxystyryl)acrylonitrile] the “killing of Z119 cells after purging” value ([1]; 25 μM, 2.5 hours exposure) was 85%, the “subsequent Z119 cell growth after purging” value ([1]; 25 μM, five hour exposure) was “complete ablation” and the “inhibition of Z119 cells after purging” value ([1]; 50 μM, 2.5 hours exposure) was “complete inhibition”. The “concentrations effecting complete inhibition of AML-3 cell proliferation and survival” value [2] was 300 to 600 nM, the promotion of myelopoiesis [3] was “capable of promoting myelopoiesis” and the “effectiveness against a variety of cell types” value ([4]; Acute Lymphoblastic Leukemia, Philadelphia positive Leukemia, Acute Myeloid Leukemia) was “highly effective”. For the same molecule, the “toxicity to cancer cells” value ([4]; low nanomolar doses, long term exposure) was “highly toxic”, the “inhibition of Z119 ALL cell proliferation and survival” value [5] was “significant inhibition” and the inhibition at 5 µM [6] was 80 to 90%. The “retention: detection in the blood” value [7] was “still being detectable”, the inhibition at 2.5 µM [8] was > 90% and the “concentration by which inhibition was effected” value (Ly-MN lymphoma cells) was 2.5 µM. The “inhibition of Ly-MN cell proliferation and survival” value (Ly-MN lymphoma cells; nanomolar doses) was “significantly inhibited”.
